According to ChEMBL document CHEMBL5233266, “β-Carboline as a Privileged Scaffold for Multitarget Strategies in Alzheimer's Disease Therapy” (J Med Chem, 2021):
One block for each compound: values may come before it.

Key:
[1] = target: GABA-A receptor; anion channel; assay: Displacement of [3H]flunitrazepam from GABAA (unknown origin ) receptor by radioligand binding assay; format: protein-complex assay, Homo sapiens
[2] = target: Acetylcholinesterase (Homo sapiens, UniProt P22303); assay: Inhibition of AChE (unknown origin)
[3] = target: Dual specificity tyrosine-phosphorylation-regulated kinase 1A (Homo sapiens, UniProt Q13627); assay: Inhibition of DYRK1A (unknown origin)
[4] = target: T1, Amine oxidase [flavin-containing] A (Homo sapiens, UniProt P21397); assay: Inhibition of MAO-A (unknown origin)
T1 sequence (P21397 whole entry): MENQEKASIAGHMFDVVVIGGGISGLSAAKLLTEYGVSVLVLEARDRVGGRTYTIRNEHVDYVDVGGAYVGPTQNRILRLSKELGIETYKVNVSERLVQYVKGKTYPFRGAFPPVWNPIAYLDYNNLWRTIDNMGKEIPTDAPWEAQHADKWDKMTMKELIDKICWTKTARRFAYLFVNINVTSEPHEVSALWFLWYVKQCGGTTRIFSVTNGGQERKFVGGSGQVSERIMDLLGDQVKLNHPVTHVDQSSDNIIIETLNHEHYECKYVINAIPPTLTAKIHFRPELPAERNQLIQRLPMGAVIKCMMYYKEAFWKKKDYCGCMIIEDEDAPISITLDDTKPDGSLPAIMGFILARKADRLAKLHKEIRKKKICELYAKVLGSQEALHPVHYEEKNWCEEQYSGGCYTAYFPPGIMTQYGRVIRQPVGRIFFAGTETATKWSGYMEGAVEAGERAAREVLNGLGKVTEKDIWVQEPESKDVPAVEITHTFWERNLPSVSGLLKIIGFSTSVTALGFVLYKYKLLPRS

[5] = target: Cholinesterase (Homo sapiens, UniProt P06276); assay: Inhibition of BuChE (unknown origin)
[6] = target: T2, 5-hydroxytryptamine receptor 3A (Homo sapiens, UniProt P46098); assay: Binding affinity to 5-HT3R (unknown origin) assessed as inhibition constant
T2 sequence (P46098 whole entry): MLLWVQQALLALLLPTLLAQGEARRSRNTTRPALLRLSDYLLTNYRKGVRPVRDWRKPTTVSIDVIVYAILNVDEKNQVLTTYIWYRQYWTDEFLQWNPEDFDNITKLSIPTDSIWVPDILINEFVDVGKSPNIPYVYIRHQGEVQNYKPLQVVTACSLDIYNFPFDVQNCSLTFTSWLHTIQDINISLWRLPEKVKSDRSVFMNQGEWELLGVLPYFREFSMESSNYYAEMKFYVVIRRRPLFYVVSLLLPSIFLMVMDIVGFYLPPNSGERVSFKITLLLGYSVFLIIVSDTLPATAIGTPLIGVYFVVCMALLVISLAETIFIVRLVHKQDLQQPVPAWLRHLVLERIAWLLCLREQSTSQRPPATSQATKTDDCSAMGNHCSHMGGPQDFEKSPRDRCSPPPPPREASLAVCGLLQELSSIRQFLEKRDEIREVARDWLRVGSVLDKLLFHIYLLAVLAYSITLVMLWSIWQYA

[7] = target: 5-hydroxytryptamine receptor 5A (Homo sapiens, UniProt P47898); assay: Binding affinity to 5-HT5AR (unknown origin) assessed as inhibition constant
[8] = target: 5-hydroxytryptamine receptor 2A (Homo sapiens, UniProt P28223); assay: Displacement of [3H]-LSD from human 5-HT2A expressed in human HEK cells assessed as inhibition constant by FLIPR assay; format: cell-based
[9] = target: 5-hydroxytryptamine receptor 2A (Rattus norvegicus, UniProt P14842); assay: Displacement of [3H]-ketanserin from rat 5-HT2A expressed in mouse NIH/3T3 cells assessed as inhibition constant by Cheng-Prusoff equation analysis; format: cell-based
[10] = target: Amyloid-beta precursor protein (Homo sapiens) (UniProt P05067); assay: Inhibition of amyloid beta (unknown origin) aggregation at 25 uM relative to control
[11] = target: Glycogen synthase kinase-3 beta (Homo sapiens, UniProt P49841); assay: Inhibition of GSK-3beta (unknown origin)
[12] = target: T3, Amine oxidase [flavin-containing] B (Homo sapiens, UniProt P27338); assay: Inhibition of MAO-B (unknown origin)
T3 sequence (P27338 whole entry): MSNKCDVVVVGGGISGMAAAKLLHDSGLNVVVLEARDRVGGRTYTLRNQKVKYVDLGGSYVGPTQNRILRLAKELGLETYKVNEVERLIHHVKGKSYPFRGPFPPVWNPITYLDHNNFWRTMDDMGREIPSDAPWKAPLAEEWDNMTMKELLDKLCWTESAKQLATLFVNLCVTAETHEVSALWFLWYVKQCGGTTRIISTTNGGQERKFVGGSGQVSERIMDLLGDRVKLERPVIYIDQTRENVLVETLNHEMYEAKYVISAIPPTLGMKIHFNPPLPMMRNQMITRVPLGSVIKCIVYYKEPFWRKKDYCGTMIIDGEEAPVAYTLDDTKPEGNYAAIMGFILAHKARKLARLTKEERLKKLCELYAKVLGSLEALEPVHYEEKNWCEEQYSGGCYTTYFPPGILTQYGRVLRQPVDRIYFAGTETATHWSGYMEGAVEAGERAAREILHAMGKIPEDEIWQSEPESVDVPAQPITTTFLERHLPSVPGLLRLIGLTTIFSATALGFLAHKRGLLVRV

[13] = target: Histone deacetylase; assay: Inhibition of HDAC (unknown origin); format: protein assay, Homo sapiens
[14] = target: cGMP-specific 3',5'-cyclic phosphodiesterase (Homo sapiens, UniProt O76074); assay: Inhibition of PDE5 (unknown origin)
[15] = target: T4, 5-hydroxytryptamine receptor 2C (Homo sapiens, UniProt P28335); assay: Binding affinity to 5-HT2C (unknown origin) assessed as inhibition constant
T4 sequence (P28335 whole entry): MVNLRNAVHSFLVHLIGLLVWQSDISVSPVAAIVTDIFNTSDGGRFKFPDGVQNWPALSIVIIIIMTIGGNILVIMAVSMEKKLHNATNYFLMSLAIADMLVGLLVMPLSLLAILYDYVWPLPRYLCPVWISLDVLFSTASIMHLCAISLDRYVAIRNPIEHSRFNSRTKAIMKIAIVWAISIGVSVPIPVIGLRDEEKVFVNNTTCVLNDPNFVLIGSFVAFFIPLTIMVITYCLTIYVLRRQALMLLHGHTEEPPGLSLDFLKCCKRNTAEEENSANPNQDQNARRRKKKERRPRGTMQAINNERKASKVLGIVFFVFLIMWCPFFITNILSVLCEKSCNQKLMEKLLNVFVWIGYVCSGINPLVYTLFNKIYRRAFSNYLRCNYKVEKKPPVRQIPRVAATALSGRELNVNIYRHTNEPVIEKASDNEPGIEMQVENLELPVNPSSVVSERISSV

[16] = target: 5-hydroxytryptamine receptor 2B (Homo sapiens, UniProt P41595); assay: Binding affinity to 5-HT2BR (unknown origin) assessed as inhibition constant
[17] = target: T1, Amine oxidase [flavin-containing] A; assay: Binding affinity to MAO-A (unknown origin) assessed as inhibition constant
[18] = target: T5, Protein deacetylase HDAC6 (Homo sapiens, UniProt Q9UBN7); assay: Inhibition of HDAC6 (unknown origin)
T5 sequence (Q9UBN7 whole entry): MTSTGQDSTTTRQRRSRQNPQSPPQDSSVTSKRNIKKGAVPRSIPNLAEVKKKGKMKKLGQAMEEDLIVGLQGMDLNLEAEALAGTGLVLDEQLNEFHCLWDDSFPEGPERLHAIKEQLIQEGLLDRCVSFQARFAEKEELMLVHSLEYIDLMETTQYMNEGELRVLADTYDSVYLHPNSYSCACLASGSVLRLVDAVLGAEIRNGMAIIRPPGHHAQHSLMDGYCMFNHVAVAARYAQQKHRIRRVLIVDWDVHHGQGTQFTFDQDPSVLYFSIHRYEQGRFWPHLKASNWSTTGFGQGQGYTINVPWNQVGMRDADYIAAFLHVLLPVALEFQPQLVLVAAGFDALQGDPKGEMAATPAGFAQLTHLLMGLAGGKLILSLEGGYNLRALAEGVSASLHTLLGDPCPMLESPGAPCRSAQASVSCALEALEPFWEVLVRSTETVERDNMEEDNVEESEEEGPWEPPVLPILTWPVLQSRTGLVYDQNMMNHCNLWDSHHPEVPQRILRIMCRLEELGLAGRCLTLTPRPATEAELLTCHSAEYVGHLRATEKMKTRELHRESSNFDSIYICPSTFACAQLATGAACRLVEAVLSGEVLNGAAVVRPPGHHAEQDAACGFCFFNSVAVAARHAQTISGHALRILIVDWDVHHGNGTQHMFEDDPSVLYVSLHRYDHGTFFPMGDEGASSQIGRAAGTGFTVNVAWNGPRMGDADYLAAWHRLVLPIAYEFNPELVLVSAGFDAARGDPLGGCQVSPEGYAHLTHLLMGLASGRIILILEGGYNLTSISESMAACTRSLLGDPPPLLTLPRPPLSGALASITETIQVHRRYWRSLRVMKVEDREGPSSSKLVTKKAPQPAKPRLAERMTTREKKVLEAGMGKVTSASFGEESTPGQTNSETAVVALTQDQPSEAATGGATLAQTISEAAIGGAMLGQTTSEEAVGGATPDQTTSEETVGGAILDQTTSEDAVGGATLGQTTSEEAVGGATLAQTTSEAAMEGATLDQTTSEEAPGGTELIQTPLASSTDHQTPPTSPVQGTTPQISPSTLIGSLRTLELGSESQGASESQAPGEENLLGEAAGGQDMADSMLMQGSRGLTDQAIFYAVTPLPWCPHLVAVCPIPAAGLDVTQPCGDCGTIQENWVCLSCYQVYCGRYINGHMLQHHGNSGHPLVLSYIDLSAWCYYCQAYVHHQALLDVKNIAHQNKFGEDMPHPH

[19] = target: Histone deacetylase 1 (Homo sapiens, UniProt Q13547); assay: Inhibition of HDAC1 (unknown origin)
[20] = Inhibition of NMDA receptor (unknown origin); parameters: species or system Homo sapiens

Sequence of Acetylcholinesterase (P22303 whole entry): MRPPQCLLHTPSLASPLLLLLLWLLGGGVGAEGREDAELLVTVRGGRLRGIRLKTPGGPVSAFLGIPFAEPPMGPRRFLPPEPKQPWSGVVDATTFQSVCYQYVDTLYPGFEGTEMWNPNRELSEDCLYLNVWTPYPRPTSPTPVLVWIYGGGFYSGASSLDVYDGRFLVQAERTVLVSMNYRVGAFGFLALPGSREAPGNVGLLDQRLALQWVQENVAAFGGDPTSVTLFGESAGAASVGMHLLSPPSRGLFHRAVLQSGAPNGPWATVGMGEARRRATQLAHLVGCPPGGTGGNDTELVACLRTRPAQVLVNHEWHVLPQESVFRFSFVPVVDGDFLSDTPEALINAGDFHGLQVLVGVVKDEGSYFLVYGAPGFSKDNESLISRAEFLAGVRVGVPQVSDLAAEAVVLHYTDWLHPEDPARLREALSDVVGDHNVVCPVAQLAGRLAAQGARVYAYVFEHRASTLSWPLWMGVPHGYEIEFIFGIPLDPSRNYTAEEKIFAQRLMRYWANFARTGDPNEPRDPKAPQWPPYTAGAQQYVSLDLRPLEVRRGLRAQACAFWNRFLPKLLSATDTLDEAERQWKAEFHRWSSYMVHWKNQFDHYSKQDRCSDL
Sequence of Cholinesterase (P06276 whole entry): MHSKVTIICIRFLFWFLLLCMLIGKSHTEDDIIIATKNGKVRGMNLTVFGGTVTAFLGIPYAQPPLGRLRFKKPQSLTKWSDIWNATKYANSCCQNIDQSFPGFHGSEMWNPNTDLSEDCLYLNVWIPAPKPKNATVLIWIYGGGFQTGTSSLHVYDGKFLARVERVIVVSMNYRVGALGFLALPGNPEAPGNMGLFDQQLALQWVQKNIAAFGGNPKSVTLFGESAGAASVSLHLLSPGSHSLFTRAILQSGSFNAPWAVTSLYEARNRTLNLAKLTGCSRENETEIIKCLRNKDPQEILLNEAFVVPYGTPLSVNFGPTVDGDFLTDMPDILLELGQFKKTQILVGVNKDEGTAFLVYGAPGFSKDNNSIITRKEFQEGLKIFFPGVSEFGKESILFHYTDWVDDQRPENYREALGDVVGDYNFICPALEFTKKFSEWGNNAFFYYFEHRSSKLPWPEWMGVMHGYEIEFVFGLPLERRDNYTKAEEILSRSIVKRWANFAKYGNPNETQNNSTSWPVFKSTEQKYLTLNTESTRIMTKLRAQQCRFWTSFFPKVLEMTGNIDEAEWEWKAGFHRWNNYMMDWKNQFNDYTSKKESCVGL
Sequence of 5-hydroxytryptamine receptor 5A (P47898 whole entry): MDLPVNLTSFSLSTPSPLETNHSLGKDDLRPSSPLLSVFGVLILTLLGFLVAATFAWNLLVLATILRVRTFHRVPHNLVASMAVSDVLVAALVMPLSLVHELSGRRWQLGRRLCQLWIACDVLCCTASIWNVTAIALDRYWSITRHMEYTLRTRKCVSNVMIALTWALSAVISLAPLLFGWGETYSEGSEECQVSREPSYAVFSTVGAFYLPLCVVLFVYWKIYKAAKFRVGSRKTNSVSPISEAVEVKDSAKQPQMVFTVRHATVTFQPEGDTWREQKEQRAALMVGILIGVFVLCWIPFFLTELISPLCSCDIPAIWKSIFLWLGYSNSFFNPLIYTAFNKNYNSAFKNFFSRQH
Sequence of 5-hydroxytryptamine receptor 2A (Rattus norvegicus, UniProt P14842) (P14842 whole entry): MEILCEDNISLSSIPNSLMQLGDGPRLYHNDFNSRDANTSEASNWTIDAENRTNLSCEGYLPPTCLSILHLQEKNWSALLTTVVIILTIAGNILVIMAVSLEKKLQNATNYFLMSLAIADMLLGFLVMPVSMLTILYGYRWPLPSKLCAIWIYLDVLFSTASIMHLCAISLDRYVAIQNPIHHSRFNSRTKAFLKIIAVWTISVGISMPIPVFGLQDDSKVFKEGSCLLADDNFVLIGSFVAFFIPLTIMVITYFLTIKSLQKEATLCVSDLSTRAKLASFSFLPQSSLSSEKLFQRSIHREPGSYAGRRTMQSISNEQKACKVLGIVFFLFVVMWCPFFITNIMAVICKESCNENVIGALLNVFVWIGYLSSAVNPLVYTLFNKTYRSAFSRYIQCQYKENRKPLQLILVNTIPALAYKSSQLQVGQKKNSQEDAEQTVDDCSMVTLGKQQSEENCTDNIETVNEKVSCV
Sequence of 5-hydroxytryptamine receptor 2A (Homo sapiens, UniProt P28223) (P28223 whole entry): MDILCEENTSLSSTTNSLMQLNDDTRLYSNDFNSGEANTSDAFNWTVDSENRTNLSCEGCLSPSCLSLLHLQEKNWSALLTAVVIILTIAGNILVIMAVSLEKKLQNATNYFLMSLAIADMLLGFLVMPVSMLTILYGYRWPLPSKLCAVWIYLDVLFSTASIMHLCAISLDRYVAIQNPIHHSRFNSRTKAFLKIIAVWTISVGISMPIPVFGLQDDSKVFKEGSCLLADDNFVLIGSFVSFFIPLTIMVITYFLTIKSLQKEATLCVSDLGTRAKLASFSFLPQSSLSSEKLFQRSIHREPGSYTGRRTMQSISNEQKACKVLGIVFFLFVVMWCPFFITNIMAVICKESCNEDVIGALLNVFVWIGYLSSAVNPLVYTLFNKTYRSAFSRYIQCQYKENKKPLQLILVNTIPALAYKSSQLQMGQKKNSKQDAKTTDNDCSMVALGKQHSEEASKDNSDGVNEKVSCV
Sequence of Histone deacetylase 1 (Q13547 whole entry): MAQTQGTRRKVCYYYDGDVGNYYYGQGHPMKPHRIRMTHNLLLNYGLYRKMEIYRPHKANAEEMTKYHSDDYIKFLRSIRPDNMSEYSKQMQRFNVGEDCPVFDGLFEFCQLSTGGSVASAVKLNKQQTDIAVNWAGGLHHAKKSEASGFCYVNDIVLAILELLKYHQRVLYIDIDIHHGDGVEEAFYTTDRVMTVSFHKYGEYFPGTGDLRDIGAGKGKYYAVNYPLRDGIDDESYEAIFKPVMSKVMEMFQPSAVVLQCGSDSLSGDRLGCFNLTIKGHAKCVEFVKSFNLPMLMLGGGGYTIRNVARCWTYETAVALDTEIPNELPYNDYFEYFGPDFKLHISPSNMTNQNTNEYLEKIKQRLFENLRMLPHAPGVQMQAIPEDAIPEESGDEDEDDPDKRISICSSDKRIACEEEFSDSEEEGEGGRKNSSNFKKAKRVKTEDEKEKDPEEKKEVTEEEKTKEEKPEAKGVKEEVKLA
Sequence of 5-hydroxytryptamine receptor 2B (P41595 whole entry): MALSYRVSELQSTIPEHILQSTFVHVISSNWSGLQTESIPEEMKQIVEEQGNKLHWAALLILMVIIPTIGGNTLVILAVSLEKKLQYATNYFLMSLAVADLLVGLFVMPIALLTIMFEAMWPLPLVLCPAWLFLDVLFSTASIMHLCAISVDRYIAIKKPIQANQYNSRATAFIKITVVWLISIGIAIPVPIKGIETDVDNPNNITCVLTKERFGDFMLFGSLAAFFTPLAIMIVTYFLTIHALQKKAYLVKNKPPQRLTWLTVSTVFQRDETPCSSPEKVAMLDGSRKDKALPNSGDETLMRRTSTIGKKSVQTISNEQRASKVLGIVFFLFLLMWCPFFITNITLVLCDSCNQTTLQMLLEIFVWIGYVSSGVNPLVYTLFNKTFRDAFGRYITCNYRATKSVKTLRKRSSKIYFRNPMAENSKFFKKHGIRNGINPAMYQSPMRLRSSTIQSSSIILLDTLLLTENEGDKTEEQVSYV
Sequence of Glycogen synthase kinase-3 beta (P49841 whole entry): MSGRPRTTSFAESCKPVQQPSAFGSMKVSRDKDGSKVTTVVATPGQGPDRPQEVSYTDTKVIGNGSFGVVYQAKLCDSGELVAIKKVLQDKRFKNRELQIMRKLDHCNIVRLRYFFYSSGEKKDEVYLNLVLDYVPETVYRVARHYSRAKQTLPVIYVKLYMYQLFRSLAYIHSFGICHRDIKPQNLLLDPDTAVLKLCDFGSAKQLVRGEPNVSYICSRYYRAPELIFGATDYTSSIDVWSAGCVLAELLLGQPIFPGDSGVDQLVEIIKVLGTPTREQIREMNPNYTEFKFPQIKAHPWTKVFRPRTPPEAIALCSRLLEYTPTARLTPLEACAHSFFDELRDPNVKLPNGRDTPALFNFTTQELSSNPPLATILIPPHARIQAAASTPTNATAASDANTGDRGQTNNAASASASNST
Sequence of Amyloid-beta precursor protein (Homo sapiens) (P05067 whole entry): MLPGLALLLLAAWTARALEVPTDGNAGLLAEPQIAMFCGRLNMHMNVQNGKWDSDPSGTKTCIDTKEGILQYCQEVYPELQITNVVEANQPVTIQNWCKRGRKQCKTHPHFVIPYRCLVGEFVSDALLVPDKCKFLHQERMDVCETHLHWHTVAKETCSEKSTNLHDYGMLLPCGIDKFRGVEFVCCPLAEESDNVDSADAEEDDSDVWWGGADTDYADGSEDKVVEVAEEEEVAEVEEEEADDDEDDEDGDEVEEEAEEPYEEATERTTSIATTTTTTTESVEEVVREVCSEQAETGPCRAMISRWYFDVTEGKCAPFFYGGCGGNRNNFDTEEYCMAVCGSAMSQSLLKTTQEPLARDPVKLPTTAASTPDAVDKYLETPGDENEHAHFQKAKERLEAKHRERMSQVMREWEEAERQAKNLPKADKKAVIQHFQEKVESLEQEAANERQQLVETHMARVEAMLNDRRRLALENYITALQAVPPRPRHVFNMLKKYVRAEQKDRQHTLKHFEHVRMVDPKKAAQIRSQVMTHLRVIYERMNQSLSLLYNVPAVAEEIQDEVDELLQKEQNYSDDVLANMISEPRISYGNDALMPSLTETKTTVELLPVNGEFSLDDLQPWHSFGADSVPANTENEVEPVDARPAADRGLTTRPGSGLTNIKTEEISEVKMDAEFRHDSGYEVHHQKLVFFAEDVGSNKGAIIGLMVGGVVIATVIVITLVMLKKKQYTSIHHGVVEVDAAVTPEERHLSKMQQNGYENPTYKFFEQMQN

Ki [9]: 44 nM
SMILES: C=CC(=O)N1CCc2c(n(CCCCN3CCN(c4ccccc4OC)CC3)c3ccccc23)C1

inhibition [10]: 93%
SMILES: CCCCc1ccc[n+](CC(=O)Nc2ccc3cc4c5[nH]c6ccccc6c5ccn4c(=O)c3c2)c1

IC50 [13]: 61 nM | IC50 [14]: 7 nM
SMILES: O=C(CCCCN1CC(=O)N2[C@H](c3ccc(Br)cc3)c3[nH]c4ccccc4c3C[C@@H]2C1=O)NO

Ki [15]: 170 nM | Ki [7]: 170 nM | Ki [16]: 170 nM
SMILES: Oc1ccc2[nH]c3c(-c4c[nH]c5ccccc45)nccc3c2c1

IC50 [18]: 80 nM | IC50 [19]: 80 nM | IC50 [14]: 310 nM
SMILES: O=C(NO)c1cnc(N2CCC(CN3CC(=O)N4C(Cc5c([nH]c6ccccc56)C4c4ccc5c(c4)OCO5)C3=O)CC2)nc1 (centres undefined)

The remaining lines, values behind:

SMILES: Cc1nccc2c1[nH]c1ccccc12 [HARMAN]
IC50 [1]: 2500 nM | IC50 [2]: > 10000 nM | IC50 [3]: > 1800 nM | IC50 [4]: 29 nM | IC50 [5]: > 10000 nM

SMILES: COc1ccc2[nH]c3c(c2c1)CCN=C3C
Ki [6]: > 10000 nM | Ki [7]: > 10000 nM | Ki [8]: 4200 nM

SMILES: c1ccc2c(c1)[nH]c1cnccc12 [NORHARMANE]
IC50 [1]: 1600 nM | IC50 [2]: > 40000 nM | IC50 [3]: > 1800 nM | IC50 [5]: > 40000 nM

SMILES: Oc1cccc2c1[nH]c1c(C3=C[C@@]4(O)CC/C=C\CCCCN5CCC3[C@]3(C[C@@H]6/C=C\CCCCN6[C@H]34)C5)nccc12 (some centres undefined)
IC50 [11]: 4800 nM

SMILES: C/C=C(\C=O)[C@@H]1C[C@H]2c3[nH]c4ccccc4c3CCN2C=C1C(=O)OC [ISOVALLESIACHOTAMINE]
IC50 [12]: 130000 nM | IC50 [4]: 870 nM

SMILES: COc1ccc2c3c(n(C)c2c1)C(C)=[N+](C)CC3
Ki [17]: 140 nM

SMILES: C[n+]1ccc2c3ccccc3n(CCc3ccccc3)c2c1
IC50 [2]: 0.5 nM | IC50 [20]: 5000 nM | IC50 [5]: 5000 nM
